We go through eight compounds from ChEMBL document CHEMBL5661943, “ASAP - In vitro antiviral effect” (2024).

Test [1] concerns Zika virus. In words: EC50 is reported via analysis of immunofluorescence staining. The assay has been performed by Icahn School of Medicine at Mount Sinai. To be noted: for EC90: P-gp concentration 2 uM, P-gp inhibitor Elacidar. Type of test: functional, organism-based, Chlorocebus sabaeus, VeroE6/TMPRSS2.
Test [2] concerns dengue virus type 2. In words: Functional assay to measure dose dependent changes in antiviral-drug inhibitory efficacy against Dengue virus type 2 New Guinea C in Vero E6 miRFP670 cells (cotreated with P-gp inhibitor, CP100356). Cells are treated with antiviral candidates that are serially diluted, following infection, cells are fixed. EC50 is reported via analysis of fluorescence intensity using high-content imager. The …. The format is organism-based, Chlorocebus sabaeus, Vero C1008. To be noted: Dengue virus; for EC90: P-gp concentration 500 nM, P-gp inhibitor CP100356.

Test [3] concerns dengue virus type 2. In words: Functional immunofluorescence assay to measure dose dependent changes in antiviral-drug inhibitory efficacy against Dengue virus type 2 Thailand/16681/84 in Vero E6/TMPRSS2 cells (cotreated with P-gp inhibitor, Elacridar). Cells are treated with antiviral candidates that are serially diluted, following infection, cells are fixed. EC50 is reported via analysis of immunofluorescence staining. The assay has been performed by Icahn School of Medicine at Mount Sinai. Type of test: organism-based, Chlorocebus sabaeus, VeroE6/TMPRSS2. As to conditions: Dengue virus; for EC90: P-gp concentration 2 uM, P-gp inhibitor Elacidar.

Test [4] deals with Zika virus. Nature of the test: Functional CPE-based assay to measure dose dependent changes in antiviral-drug inhibitory efficacy against Zika virus MR766 in Vero E6 miRFP670 cells (cotreated with P-gp inhibitor, CP100356). Cells are treated with antiviral candidates that are serially diluted. EC50 is reported via analysis of MTS assay as a readout of CPE. The assay has been performed by KU Leuven. The format is organism-based, Chlorocebus sabaeus, Vero C1008. As to conditions: Zika virus; for EC90: P-gp concentration 500 nM, P-gp inhibitor CP100356. For orientation: Tetrazolium dyes change colour on reduction, which living cells bring about.

pEC50: −log10 of the molar value. Several values for one entry are separate records, joined by “and”; a condition that tells them apart may be missing. Equal values may be shown once.

As usually defined, the EC90 is the point of the concentration-response curve where the effect stands at 90%. Broadly, the pEC50 is −log10 of the EC50, conventionally taken in molar units.

`O=C1Cc2c(cc(Br)cc2C(=O)Nc2ccc3c(c2)CNC3)N1`: the EC90 in test [1] (Baseline response 0 %, EC90 CI (lower) 0.005 uM, EC90 CI (upper) 0.605 uM, Hill slope -0.732, Maximum measured 85.329 %, Maximum response 60 %, Minimum measured 3.582 %, R squared 0.614) was 21.3 µM; in test [1] (Baseline response 0 %, Hill slope -0.686, Maximum measured 100.363 %, Maximum response 100 %, Minimum measured 5.777 %, R squared 0.778) it was more than 50 µM; in test [2] (Vero C1008, Maximum measured 133.969 %, Minimum measured 97.1 %), more than 50 µM; in test [3] (VeroE6/TMPRSS2, Maximum measured […], Minimum measured 159.027 %), more than 50 µM; in test [4] (Vero C1008, Baseline response 0 %, EC90 CI (lower) 4.323 uM, EC90 CI (upper) 45.141 uM, Hill slope 3.545, Maximum measured 169.819 %, Maximum response 100 %, Minimum measured -0.685 %, R squared 0.785), 14 µM. In addition, the pEC50 is 5.68 in test [1] (Zika virus, VeroE6/TMPRSS2); 5.98 in test [1] (veroe6/tmprss2); less than 4.30 in test [2] (Vero C1008); less than 4.30 in test [3] (VeroE6/TMPRSS2); 5.12 in test [4] (Vero C1008).
Turning to `N#Cc1cc(C(=O)Nc2ccc3c(c2)CNC3)cc(C(F)(F)F)c1`, the pEC50 in test [1] (Zika virus, VeroE6/TMPRSS2) was less than 4.30; in test [2] (Vero C1008), less than 4.30; in test [3] (VeroE6/TMPRSS2), 4.63; in test [4] (Vero C1008), less than 4.30. In addition, the EC90 is more than 50 µM in test [1] (Zika virus, VeroE6/TMPRSS2, Maximum measured 132.778 %, Minimum measured 43.807 %); more than 50 µM in test [2] (Vero C1008, Baseline response 0 %, Hill slope 0.474, Maximum measured 101.337 %, Maximum response 100 %, Minimum measured 73.182 %, R squared 0.159); more than 50 µM in test [3] (VeroE6/TMPRSS2, Baseline response 0 %, Hill slope -2.224, Maximum measured 139.741 %, Maximum response 100 %, Minimum measured 16.816 %, R squared 0.66); more than 50 µM in test [4] (Vero C1008, Baseline response 0 %, Hill slope 0.826, Maximum measured 10.885 %, Maximum response 100 %, Minimum measured 0.969 %, R squared 0.373).
`O=C(Nc1ccc2c(c1)CNC2)c1cc(Br)cc2[nH]ncc12`: the EC90 in test [1] (Baseline response 0 %, EC90 CI (lower) 1.042 uM, EC90 CI (upper) 22.584 uM, Hill slope -2.906, Maximum measured 100.475 %, Maximum response 60 %, Minimum measured 3.913 %, R squared 0.559) was 22 µM; in test [1] (Baseline response 0 %, Hill slope -0.436, Maximum measured 89.533 %, Maximum response 80 %, Minimum measured 16.256 %, R squared 0.57), more than 50 µM; in test [2] (Vero C1008, Baseline response 0 %, Hill slope -0.471, Maximum measured 107.19 %, Maximum response 100 %, Minimum measured 78.588 %, R squared 0.089) it was more than 50 µM; in test [3] (VeroE6/TMPRSS2, Maximum measured 186.968 %, Minimum measured 93.389 %), more than 50 µM; in test [4] (Vero C1008, Baseline response 0 %, Hill slope 1.733, Maximum measured 40.291 %, Maximum response 100 %, Minimum measured -1.647 %, R squared 0.923) it was more than 50 µM. The pEC50 in test [1] (veroe6/tmprss2) is 5.43 and 4.99; in test [2] (Vero C1008), less than 4.30; in test [3] (VeroE6/TMPRSS2) it was less than 4.30; in test [4] (Vero C1008), less than 4.30.
Turning to `Cc1cc(C(=O)Nc2ccc3c(c2)CNC3)c2cn[nH]c2c1`, the EC90 in test [1] (Baseline response 0 %, Hill slope -2.011, Maximum measured 89.225 %, Maximum response 60 %, Minimum measured 14.739 %, R squared 0.55) was more than 50 µM; in test [1] (Zika virus, VeroE6/TMPRSS2, Baseline response 0 %, Hill slope -0.435, Maximum measured 146.607 %, Maximum response 100 %, Minimum measured 37.409 %, R squared 0.47), more than 50 µM; in test [2] (Vero C1008, Maximum measured 131.325 %, Minimum measured 92.066 %), more than 50 µM; in test [3] (VeroE6/TMPRSS2, Baseline response 0 %, Hill slope -0.131, Maximum measured 111.871 %, Maximum response 100 %, Minimum measured 74.867 %, R squared 0.056), more than 16.7 µM; in test [4] (Vero C1008, Baseline response 0 %, EC90 CI (lower) 4.895 uM, EC90 CI (upper) 50.446 uM, Hill slope 3.132, Maximum measured 172.887 %, Maximum response 100 %, Minimum measured 3.006 %, R squared 0.777), 15.7 µM. Further, the pEC50 in test [1] (veroe6/tmprss2) is 5.31 and 4.52; in test [2] (Vero C1008), less than 4.30; in test [3] (VeroE6/TMPRSS2), less than 4.78; in test [4] (Vero C1008) it was 5.11.
For the compound `O=C(Nc1ccc2c(c1)CNC2)c1cc(F)cc2[nH]ncc12`, the EC90 in test [1] (Baseline response 0 %, EC90 CI (lower) 0.259 uM, EC90 CI (upper) 34.627 uM, Hill slope -1.703, Maximum measured 110.866 %, Maximum response 50 %, Minimum measured 3.647 %, R squared 0.44) was 39.5 µM; in test [1] (Zika virus, VeroE6/TMPRSS2, Baseline response 0 %, Hill slope -2.726, Maximum measured 111.669 %, Maximum response 100 %, Minimum measured 14.076 %, R squared 0.547), more than 50 µM; in test [2] (Vero C1008, Maximum measured 105.261 %, Minimum measured 100.126 %), more than 50 µM; in test [3] (VeroE6/TMPRSS2, Maximum measured 176.33 %, Minimum measured 105.177 %) it was more than 50 µM; in test [4] (Vero C1008, Baseline response 0 %, Hill slope 1.231, Maximum measured 66.562 %, Maximum response 100 %, Minimum measured -0.926 %, R squared 0.986) it was more than 50 µM. Besides, the pEC50 was 4.59 and 4.96 in test [1] (veroe6/tmprss2); less than 4.30 in test [2] (Vero C1008); less than 4.30 in test [3] (VeroE6/TMPRSS2); 4.60 in test [4] (Vero C1008).
For `CNC(=O)[C@H](Nc1ccc2c(c1)CNC2)c1cc(Cl)cc2[nH]ncc12`, the pEC50 in test [1] (Zika virus, VeroE6/TMPRSS2) is less than 4.30; in test [2] (Vero C1008), less than 4.30; in test [3] (VeroE6/TMPRSS2) it was less than 4.30; in test [4] (Vero C1008) it was less than 4.30. The EC90 was more than 50 µM in test [1] (Zika virus, VeroE6/TMPRSS2, Maximum measured 122.029 %, Minimum measured 43.627 %); more than 50 µM in test [1] (Zika virus, VeroE6/TMPRSS2, Baseline response 0 %, Hill slope 0.082, Maximum measured 101.866 %, Maximum response 100 %, Minimum measured 51.114 %, R squared 0.025); more than 50 µM in test [2] (Vero C1008, Baseline response 0 %, Hill slope 0.363, Maximum measured 102.287 %, Maximum response 100 %, Minimum measured 71.268 %, R squared 0.122); more than 50 µM in test [3] (VeroE6/TMPRSS2, Maximum measured 241.837 %, Minimum measured 83.65 %); more than 50 µM in test [4] (Vero C1008, Baseline response 0 %, Hill slope 0.1, Maximum measured 6.056 %, Maximum response 100 %, Minimum measured 1.325 %, R squared 0.024).
Consider `N[C@H]1Cc2ccc(NC(=O)c3cc(Cl)cc4[nH]ncc34)cc2C1`, for which the pEC50 in test [1] (Zika virus, VeroE6/TMPRSS2) was 5.19; in test [2] (Vero C1008), less than 4.30; in test [3] (VeroE6/TMPRSS2), less than 4.30; in test [4] (Vero C1008) it was less than 4.30. The EC90 is more than 50 µM in test [1] (Zika virus, VeroE6/TMPRSS2, Baseline response 0 %, Hill slope -0.367, Maximum measured 76.386 %, Maximum response 70 %, Minimum measured 22.981 %, R squared 0.54); more than 50 µM in test [2] (Vero C1008, Baseline response 0 %, Hill slope -0.493, Maximum measured 107.038 %, Maximum response 100 %, Minimum measured 74.642 %, R squared 0.117); more than 50 µM in test [3] (VeroE6/TMPRSS2, Baseline response 0 %, Hill slope -1.504, Maximum measured 137.122 %, Maximum response 100 %, Minimum measured 76.636 %, R squared 0.034); more than 50 µM in test [4] (Vero C1008, Baseline response 0 %, Hill slope 8.874, Maximum measured 2.747 %, Maximum response 100 %, Minimum measured -3.726 %, R squared 0.015).
`Cc1ccc(NC(=O)c2cc(Cl)cc3[nH]ncc23)cc1CN`: the pEC50 is 4.62 in test [1] (Zika virus, VeroE6/TMPRSS2); 4.53 in test [2] (Vero C1008); less than 4.30 in test [3] (VeroE6/TMPRSS2); less than 4.30 in test [4] (Vero C1008). Further, the EC90 in test [1] (Zika virus, VeroE6/TMPRSS2, Baseline response 0 %, Hill slope -0.507, Maximum measured 128.919 %, Maximum response 100 %, Minimum measured 43.47 %, R squared 0.43) was more than 50 µM; in test [2] (Vero C1008, Baseline response 0 %, Hill slope -1.708, Maximum measured 106.876 %, Maximum response 100 %, Minimum measured 12.632 %, R squared 0.516), more than 50 µM; in test [3] (VeroE6/TMPRSS2, Baseline response 0 %, Hill slope -2.664, Maximum measured 202.734 %, Maximum response 169.492 %, Minimum measured 72.11 %, R squared 0.716), more than 50 µM; in test [4] (Vero C1008, Maximum measured -0.519 %, Minimum measured -6.318 %) it was more than 50 µM.
